Test results as given in US6403149B1, “Fluorinated ketones as lubricant deposition solvents for magnetic media applications” (3M Innovative Properties Company, priority 2001, dated 2002).
Read-outs that look alike come from different tables or passages of the source.

Key:
[1] = Solubility/miscibility of perfluoropolyether lubricants (Z-DOL, AM 3001) and phosphazene additive X-1P in fluorinated solvents
Description: The term “miscible” denotes that the lubricant and fluorinated solvent were miscible in all proportions, forming an essentially clear solution. Any number entry denotes solubility in the fluorinated solvent as percent by weight. The term “NT” denotes that the compound was not tested for solubility with the solvent.
Z-DOL was evaluated for solubility in the following fluorinated ketones: […]

[2] = Cardiac sensitization no-effect level; conditions: in vivo, inhaled
Excerpt: (§1) Additionally, the fluorinated ketones have low toxicity.

[3] = Solubility of impurities (dioctyl phthalate, silicone oils) in fluorinated solvents; format: physicochemical
Description: In Comparative Examples C6-C10, the same “impurities” were evaluated for solubility in C6F14 (a perfluorocarbon), C4F9OCH3 (a hydrofluoroether), CF3CFHCFHCF2CF3 (a hydrofluorocarbon), C3F5HCl2 (a hydrochlorofluorocarbon), and […] (a chlorofluorocarbon), all fluorinated solvents outside the scope of this invention.
The term “NT” denotes that the impurity was not tested in the fluorinated solvent.

[4] = Short-term inhalation tests with rats (acute toxicity); format: in vivo
Excerpt: as §1

[5] = solute FOMBLIN AM 3001 perfluoropolyether lubricant, miscible = miscible in all proportions
[6] = solute X-1P cyclic phosphazene additive, miscible = miscible in all proportions
[7] = solute Z-DOL perfluoropolyether lubricant, miscible = miscible in all proportions, essentially clear solution

Molecule	Solubility of AM 3001 in the solvent [1, 5]	Solubility of X-1P in the solvent [1, 6]	Solubility of Z-DOL in the solvent [1, 7]	other results
O=C(C(F)(C(F)(F)F)C(F)(F)F)C(F)(C(F)(F)F)C(F)(F)F [(CF3)2CFC(O)CF(CF3)2, 1,1,1,2,4,5,5,5,6,6,6-octafluoro-2,4-bis(trifluoromethyl)pentan-3-one]	miscible	0.03 percent by weight	miscible	
COC(F)(F)C(F)(F)C(F)(F)C(F)(F)F [C4F9OCH3, perfluorobutyl methyl ether]	miscible	miscible	miscible	
FC(F)(F)C(F)(F)C(F)(F)C(F)(F)C(F)(F)C(F)(F)F [C6F14, perfluorohexane]	miscible		miscible	
O=C(C(F)(F)C(F)(F)F)C(F)(C(F)(F)F)C(F)(F)F [CF3CF2C(O)CF(CF3)2, 1,1,1,2,4,4,5,5,5-nonafluoro-2-trifluoromethyl-pentan-3-one]				"no-effect" level for cardiac sensitization [2]: > 150,000 ppm; Solubility of DOP in the solvent [3]: 0.024; Solubility of Silicone 100 cst in the solvent [3]: <0.01; Solubility of Silicone 1000 cst in the solvent [3]: <0.01; Solubility of Silicone 10000 cst in the solvent [3]: <0.01; Solubility of AM 3001 in the solvent [1]: miscible; Solubility of X-1P in the solvent [1]: 0.03 percent by weight; Solubility of Z-DOL in the solvent [1]: miscible; Acute toxicity [4]: low acute toxicity
FC(C(F)C(F)(F)C(F)(F)F)C(F)(F)F (stereo not shown) [CF3CFHCFHCF2CF3, 1,1,1,2,3,4,4,5,5,5-decafluoropentane]	miscible	miscible	miscible	
O=C(C(F)(F)C(F)(F)C(F)(F)F)C(F)(C(F)(F)F)C(F)(F)F [n-C3F7C(O)CF(CF3)2, 1,1,1,2,4,4,5,5,6,6,6-undecafluoro-2-trifluoromethylhexan-3-one]	miscible		miscible	
dichloropentafluoropropane [C3F5HCl2]	miscible	miscible	miscible	
